In ChEMBL document CHEMBL2401650, “Selective inhibition of human acetylcholinesterase by xanthine derivatives: in vitro inhibition and molecular modeling investigations” (Bioorg Med Chem Lett, 2013):

How the values were obtained:
Cholinesterase = Cholinesterase (Homo sapiens, UniProt P06276)
Description: Inhibition of human BuChE using S-butyrylthiocholine iodide as substrate treated 5 mins before substrate addition measured up to 4 mins by Ellman's method

Acetylcholinesterase = Acetylcholinesterase (Homo sapiens, UniProt P22303); assay: Inhibition of human AChE using acetylthiocholine iodide as substrate treated 5 mins before substrate addition measured up to 4 mins by Ellman's method
Acetylcholinesterase, sequence (P22303 whole entry): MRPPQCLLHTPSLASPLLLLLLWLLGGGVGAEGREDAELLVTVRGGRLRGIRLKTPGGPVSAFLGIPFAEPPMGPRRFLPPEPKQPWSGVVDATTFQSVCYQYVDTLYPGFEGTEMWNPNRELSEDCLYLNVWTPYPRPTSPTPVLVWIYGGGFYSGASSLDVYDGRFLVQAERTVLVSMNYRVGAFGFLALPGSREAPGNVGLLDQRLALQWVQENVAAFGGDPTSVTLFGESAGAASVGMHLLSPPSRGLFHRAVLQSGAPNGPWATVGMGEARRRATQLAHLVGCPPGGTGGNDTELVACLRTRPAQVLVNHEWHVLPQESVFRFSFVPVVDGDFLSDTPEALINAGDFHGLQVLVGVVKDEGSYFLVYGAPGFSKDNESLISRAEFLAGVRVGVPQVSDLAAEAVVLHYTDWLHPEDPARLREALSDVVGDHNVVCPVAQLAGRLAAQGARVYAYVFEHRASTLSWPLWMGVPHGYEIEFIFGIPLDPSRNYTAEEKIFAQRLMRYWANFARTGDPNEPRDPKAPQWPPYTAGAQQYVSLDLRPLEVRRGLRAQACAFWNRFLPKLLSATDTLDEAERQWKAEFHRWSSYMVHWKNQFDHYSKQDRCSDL

Cholinesterase, sequence (P06276 whole entry): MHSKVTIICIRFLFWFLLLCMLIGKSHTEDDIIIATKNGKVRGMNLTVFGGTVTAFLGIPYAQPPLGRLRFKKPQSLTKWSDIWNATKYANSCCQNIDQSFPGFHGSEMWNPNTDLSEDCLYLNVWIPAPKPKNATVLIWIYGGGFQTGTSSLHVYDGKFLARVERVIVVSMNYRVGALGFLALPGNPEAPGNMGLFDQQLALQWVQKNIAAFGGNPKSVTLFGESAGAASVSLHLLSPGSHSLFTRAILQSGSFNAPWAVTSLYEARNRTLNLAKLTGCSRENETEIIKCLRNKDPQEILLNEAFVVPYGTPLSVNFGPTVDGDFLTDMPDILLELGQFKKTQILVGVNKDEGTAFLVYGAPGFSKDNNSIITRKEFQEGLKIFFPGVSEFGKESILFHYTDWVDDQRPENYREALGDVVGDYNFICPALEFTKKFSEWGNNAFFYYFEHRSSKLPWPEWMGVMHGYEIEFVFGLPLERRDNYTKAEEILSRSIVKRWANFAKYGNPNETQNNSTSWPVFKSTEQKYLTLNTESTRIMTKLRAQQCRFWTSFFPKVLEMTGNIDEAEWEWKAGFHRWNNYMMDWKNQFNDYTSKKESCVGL

CCCn1cnc2c1c(=O)n(CCCCC(C)=O)c(=O)n2C [PROPENTOFYLLINE]
IC50 (Cholinesterase): > 50 µM
IC50 (Acetylcholinesterase): 6.4 µM

O=c1[nH]c(=O)c2[nH]cnc2[nH]1 [XANTHINE]
IC50 (Cholinesterase): > 50 µM
IC50 (Acetylcholinesterase): 9 µM

CC(=O)CCCCn1c(=O)c2c(ncn2C)n(C)c1=O [PENTOXIFYLLINE]
IC50 (Cholinesterase): > 50 µM
IC50 (Acetylcholinesterase): 6.6 µM
